The record followed here is article PMC3566143, “Pantothenamides Are Potent, On-Target Inhibitors of Plasmodium falciparum Growth When Serum Pantetheinase Is Inactivated” (PLoS ONE, 2013).

The test system of data set [1] is erythrocytic stage P. falciparum parasites (strain 3D7). Nature of the data set: SYBR Green I-based in vitro growth assay (96 h). In kind it is cell-based, Plasmodium falciparum. As to conditions: for IC50: Plasmodium falciparum, 96 h. Here is the method: Erythrocytic stage P. falciparum parasites (strain 3D7) were maintained within human erythrocytes in continuous culture essentially as described previously, [25]. P. falciparum-infected erythrocytes were routinely cultured in RPMI 1640 medium supplemented with 25 mM HEPES, 20 mM D-glucose, 200 µM hypoxanthine, 24 mg/L gentamycin and Albumax II (0.6%, w/v), which, hereafter is referred to as Albumax-complete RPMI. For several days prior to carrying out the assays testing the effect of compounds on the growth of P. falciparum in medium supplemented with human serum (instead of Albumax II), the parasites were cultured in the same medium mentioned above, except that human serum (10%, v/v, pooled from different blood donors) was used rather than Albumax II. This medium is hereafter referred to as human serum-complete RPMI.
The in vitro antiplasmodial activity of test compounds was determined using the malaria SYBR Green I-based fluorescence assay described by Smilkstein et al., with minor modifications. Briefly, P. falciparum-infected erythrocytes were incubated in culture medium containing two-fold dilutions of the test compounds in 96-well microtiter plates. Assays were initiated with ring-stage P. falciparum-infected erythrocytes at a hematocrit and parasitemia of 1%. Wells containing infected erythrocytes in the presence of chloroquine (0.25–2 µM) served as zero growth controls and wells containing infected erythrocytes in the absence of chloroquine or test compounds served as 100% parasite growth controls. Plates were incubated at 37°C under an atmosphere of 96% nitrogen, 3% carbon dioxide and 1% oxygen for 96 h, before 100 µL from each well was mixed with 100 µL of SYBR Safe DNA gel stain (0.2 µL/mL) in 20 mM Tris, pH 7.5, 5 mM ethylenediaminetetraacetic acid (EDTA), 0.008% (w/v) saponin, 0.08% (v/v) Triton X-100, in a second 96-well microtitre plate. Fluorescence was measured using a FLUOstar OPTIMA multidetection microplate reader from BMG LABTECH with excitation and emission wavelengths of 490 and 520 nm, respectively. The 50% inhibitory concentration (IC50) of each test compound under each test condition was calculated by fitting the data to a sigmoidal curve (typically y = a/(1+ (x/x0)^b) using nonlinear least squares regression (SigmaPlot, Systat Software) and averaging the IC50 estimates from independent experiments.
The antiplasmodial activity of test compounds was assessed in media that had been subjected to different pre-incubations. “Fresh” medium refers to medium that was stored for a maximum of 48 h at 4°C, and incubated at 37°C for a maximum of 1 h, prior to use. “Aged” medium refers to medium that was stored for a minimum of one week at 4°C and incubated intermittently at 37°C, or medium incubated continuously at 37°C for 40 h soon after preparation. As indicated at the relevant positions within the “Results” section, for some experiments the fresh medium used was, more specifically, medium used immediately following preparation, and the aged medium used was, more specifically, medium that was incubated at 37°C for 40 h immediately prior to use.

Data set [2] addresses T1, recombinant human pantetheinase (Vanin-1) (Homo sapiens, UniProt O95497).
T1 construct: purchased Novoprotein Scientific Inc. (Short Hills, New Jersey, USA)
T1 sequence (O95497 22-513): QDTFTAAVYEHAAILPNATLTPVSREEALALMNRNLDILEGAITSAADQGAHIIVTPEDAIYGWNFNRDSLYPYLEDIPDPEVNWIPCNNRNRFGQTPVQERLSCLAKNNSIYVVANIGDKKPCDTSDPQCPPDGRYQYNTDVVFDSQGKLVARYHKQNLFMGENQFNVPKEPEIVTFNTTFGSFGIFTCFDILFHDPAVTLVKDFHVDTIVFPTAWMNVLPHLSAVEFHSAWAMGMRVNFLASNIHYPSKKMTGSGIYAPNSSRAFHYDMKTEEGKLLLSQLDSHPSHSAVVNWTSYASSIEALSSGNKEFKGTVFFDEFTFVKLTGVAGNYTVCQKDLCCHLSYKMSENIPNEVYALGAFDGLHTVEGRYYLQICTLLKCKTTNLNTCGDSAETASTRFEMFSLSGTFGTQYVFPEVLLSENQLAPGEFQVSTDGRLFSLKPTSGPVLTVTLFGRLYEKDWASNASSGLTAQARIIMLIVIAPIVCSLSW
As to the kind of experiment: fluorescamine-based pantothenamide hydrolysis assay with recombinant pantetheinase. As to conditions: 200 µM compound, same conditions with water instead of enzyme. In kind it is in vitro ADME. Here is the method: (§1) Hydrolysis of compound 12 to pantothenate and isobutylamine was measured using a modification of a fluorescence-based assay described previously for the measurement of N-acetyl-1-D-myo-inosityl-2-amino-2-deoxy-α-D-glucopyranoside deacetylase activity, [31]. The assay utilizes fluorescamine (4-phenylspiro-[furan-2(3H),1-phthalan]-3,3′-dione; a non-fluorescent molecule that reacts with primary amines to form a fluorescent product) for the detection of primary amines. Briefly, recombinant human pantetheinase (at a final concentration of 100 ng/mL), Albumax II (at a final concentration 0.6%, w/v), or an equivalent volume of water, was added to solutions (at 37°C) of 100 mM potassium phosphate, pH 7.5, 0.5 mM dithiothreitol, 0.01% (w/v) bovine serum albumin, 0.1% (v/v) DMSO, with or without pantothenamide (at a final concentration of 200 µM). At the appropriate time points, aliquots (30 µL) of the reaction mixtures were removed in duplicate and mixed with 10 µL 20% (v/v) trichloroacetic acid to terminate the reaction. […] The plate was then incubated at 37°C for 10 min before fluorescence was measured using a FLUOstar OPTIMA multidetection microplate reader from BMG LABTECH with excitation and emission wavelengths of 390 and 485 nm, respectively. The fluorescence detected was converted to the corresponding isobutylamine concentration using an isobutylamine standard curve. […]

The subject of data set [3] is Albumax II. Nature of the data set: fluorescamine-based pantothenamide hydrolysis assay with Albumax II. The note with it: 200 µM compound, Albumax II 0.6% (w/v), 37°C. It is filed as in vitro ADME, bovine. Here is the method:
as §1

Read-outs that look alike come from different tables or passages of the source. A value given as a limit tells only on which side of the number the result lay.

For the molecule `CC(C)CNC(=O)CCNC(=O)[C@H](O)C(C)(C)CO` [Compound 12], the 50% inhibitory concentration (IC50) in data set [1] (3D7, 96 h, fresh Albumax-complete RPMI, 1 µM pantothenate, read-out: IC50 against P. falciparum, fresh medium, 1 μM pantothenate) is 133 ± 12 µM; in data set [1] (3D7, aged Albumax-complete RPMI (37°C for 40 h), 1 µM pantothenate, read-out: IC50 against P. falciparum, aged medium, 1 μM pantothenate), 1.1 ± 0.1 µM; in data set [1] (3D7, human serum (10%, v/v) medium incubated at 37°C for 40 h, read-out: IC50 against P. falciparum in aged human serum-complete RPMI), 22 ± 10 µM. For the same molecule, the “increase in potency after second ageing of Albumax II-supplemented aged medium” value in data set [1] (aged + Albumax II + 40 h at 37°C versus aged + fresh Albumax II) is above 65 fold. The “effect of recombinant human pantetheinase on antiplasmodial effect in aged medium” value in data set [1] (aged Albumax-complete RPMI + 100 ng/mL recombinant human pantetheinase added at start of assay) is “alleviated the antiplasmodial effect”. In data set [1] (aged Albumax-complete RPMI, IC50 at 100 µM pantothenate / IC50 at 1 µM pantothenate), the “fold-increase in IC50 following supplementation with 100 µM pantothenate, aged medium” value came to 21±1 times. Also, the “effect on parasite growth in aged Albumax-complete RPMI with additional Albumax II” value in data set [1] (aged medium + additional Albumax II (0.6%, w/v) immediately prior to assay, 200 µM) was “little-to-no effect on parasite growth”. In data set [1] (aged medium, 200 µM), the “effect on parasite growth at 200 µM in aged Albumax-complete RPMI” value is recorded as “inhibits parasite growth completely”. The “fold-increase in IC50 following supplementation with 100 µM pantothenate, fresh medium” value in data set [1] (fresh Albumax-complete RPMI, IC50 at 100 µM pantothenate / IC50 at 1 µM pantothenate) worked out at 1.3±0.2 times. Also, in data set [1] (human serum (10%, v/v), fresh medium, up to 200 µM (highest concentration tested)), the “effect on parasite growth in fresh human serum-complete RPMI” value was “little-to-no effect on parasite growth”. Moreover, the “hydrolysis in the absence of pantetheinase” value in data set [2] is “not observed”. In addition, in data set [3], the “time to completion of hydrolysis” value was at most 24 h. Also, the “fraction of pantothenamide hydrolyzed during 6 h incubation” value in data set [3] (6 h) was “over one third”.
